In the NIST ThermoML archive (doi:10.1016/j.jct.2012.01.003) one finds refractive index and mass density data, which are given here for six molecules.

Numbers after ± are expanded uncertainties.

Series [1] is described as follows: refractive index (Na D-line) (dimensionless). The settings on record: 298.2 K; 101.33 kPa; Liquid; Standard Abbe refractometry.
For series [2] the following is noted: 298.2 K; 101.33 kPa; Liquid; Kyoto 210 Density Meter.

One may read the refractive index as a measure of how strongly the sample bends light. By mass density is commonly meant the mass of a sample divided by its volume. For the molecule `CCCCCCCO` [heptan-1-ol], in series [1], the refractive index is on record as 1.4224 ± 0.0004. For the same molecule, in series [2], the mass density amounted to 818.83 ± 0.24 kg/m3.
In the case of `CCC(C)O` (stereo unspecified) [butan-2-ol], the refractive index in series [1] came out at 1.3949 ± 0.0004. Moreover, the mass density in series [2] was determined as 802.34 ± 0.23 kg/m3.
With `CCCCCCCCO` [octan-1-ol], the refractive index in series [1] was determined as 1.427 ± 0.0004. Moreover, the mass density in series [2] came out at 825.1 ± 0.24 kg/m3.
On to `O` [water], for which the refractive index in series [1] worked out at 1.3324 ± 0.0004.
Take `CCCCCCO` [hexan-1-ol]: the refractive index in series [1] was found to be 1.4155 ± 0.0004. Moreover, the mass density in series [2] was found to be 815.21 ± 0.24 kg/m3.
As for `CCCCCCCCCCO` [decan-1-ol], the refractive index in series [1] came to 1.4344 ± 0.0004. Moreover, in series [2], the mass density is 826.86 ± 0.24 kg/m3.
